Source: article PMC5566834 (2017)

Tests used:
[1] = tested on: Rd 13 (DNA, aptamer) CGGGGGGAGGCGGAGGGAGGACTGGGGCTTCATTGACGTTCTTCACAGTAGGGGTAAGGGCTTAGGTGGTTGGTGCCTG; experiment: competitive fluorescence anisotropy; conditions: 140 mM Na+, 2 mM K+, 5 mM Mg2+, 2 mM Ca2+, 20 mM Tris pH 7.4, PosBD displaced, 1,000 pmol drug in 125 μl
[2] = tested on: Rd 13 Scrambled (S) (DNA, aptamer) GCTGTGTGCGTGAGTGGAGTGCGCGCGAGAGTGAGTGCGGTGAGAGATTCGGTGTGCGTGTCGTGATGAATGCGACCGG; experiment: circular dichroism; conditions: 0.2 mM Mg2+; 20 mM Tris pH 7.4; 10 μM aptamer, 100 μM posaconazole; no CD change
[3] = tested on: amino-Rd 13 (DNA, aptamer) CGGGGGGAGGCGGAGGGAGGACTGGGGCTTCATTGACGTTCTTCACAGTAGGGGTAAGGGCTTAGGTGGTTGGTGCCTG; experiment: graphene field effect transistor, Dirac voltage shift; conditions: 140 mM Na+, 2 mM K+, 5 mM Mg2+, 2 mM Ca2+; SELEX buffer (20 mM Tris pH 7.4, 0.05% Tween); Langmuir-Hill fit; also printed as 1.8 ± 0.5 μg/ml

Row | binding ([1]; less than posaconazole) | binding [2] | binding ([1]; greatest displacement) | dissociation constant [3] [µM] | SMILES
1 | weak | – | – | – | CCC(C)n1ncn(-c2ccc(N3CCN(c4ccc(OCC5COC(Cn6cncn6)(c6ccc(Cl)cc6Cl)O5)cc4)CC3)cc2)c1=O (stereo not shown)
2 | – | no | yes | 2.6 ± 0.7 | CC[C@@H]([C@H](C)O)n1ncn(-c2ccc(N3CCN(c4ccc(OC[C@@H]5CO[C@@](Cn6cncn6)(c6ccc(F)cc6F)C5)cc4)CC3)cc2)c1=O
